Holding throughout (assay type): binding
Common to all, as to parameters: KINOMEscan: ABL1(F317L)-phosphorylated / KINOMEscan: ABL1(H396P)-nonphosphorylated / KINOMEscan: ABL1(H396P)-phosphorylated / KINOMEscan: ABL1(M351T)-phosphorylated / KINOMEscan: ABL1(T315I)-phosphorylated / KINOMEscan: ABL1-nonphosphorylated / KINOMEscan: ABL1-phosphorylated / KINOMEscan: ACVR2A / KINOMEscan: ACVR2B / KINOMEscan: ADCK3 / KINOMEscan: ADCK4 / KINOMEscan: AKT1 / KINOMEscan: AKT3 / KINOMEscan: ALK / KINOMEscan: ARK5 / KINOMEscan: AURKA / KINOMEscan: AURKC / KINOMEscan: BIKE / KINOMEscan: BMPR1A / KINOMEscan: BMPR1B / KINOMEscan: BMX / KINOMEscan: BRK / KINOMEscan: BRSK1 / KINOMEscan: BRSK2 / KINOMEscan: CAMK1 / KINOMEscan: CAMK1D / KINOMEscan: CAMK1G / KINOMEscan: CAMK2A / KINOMEscan: CAMK2B / KINOMEscan: AAK1 / KINOMEscan: CAMK2D / KINOMEscan: CAMK2G / KINOMEscan: ABL1(F317I)-nonphosphorylated / KINOMEscan: ABL1(F317I)-phosphorylated / KINOMEscan: ABL1(F317L)-nonphosphorylated: unit: % Ctrl
Common to all, as to settings: Compound Concentration 10 µM

Experiment [1] addresses T1, panel of 442 kinases (Homo sapiens, UniProt Q32MK0).
T1 construct: purchased KINOMEscan
T1 sequence (Q32MK0 1-819): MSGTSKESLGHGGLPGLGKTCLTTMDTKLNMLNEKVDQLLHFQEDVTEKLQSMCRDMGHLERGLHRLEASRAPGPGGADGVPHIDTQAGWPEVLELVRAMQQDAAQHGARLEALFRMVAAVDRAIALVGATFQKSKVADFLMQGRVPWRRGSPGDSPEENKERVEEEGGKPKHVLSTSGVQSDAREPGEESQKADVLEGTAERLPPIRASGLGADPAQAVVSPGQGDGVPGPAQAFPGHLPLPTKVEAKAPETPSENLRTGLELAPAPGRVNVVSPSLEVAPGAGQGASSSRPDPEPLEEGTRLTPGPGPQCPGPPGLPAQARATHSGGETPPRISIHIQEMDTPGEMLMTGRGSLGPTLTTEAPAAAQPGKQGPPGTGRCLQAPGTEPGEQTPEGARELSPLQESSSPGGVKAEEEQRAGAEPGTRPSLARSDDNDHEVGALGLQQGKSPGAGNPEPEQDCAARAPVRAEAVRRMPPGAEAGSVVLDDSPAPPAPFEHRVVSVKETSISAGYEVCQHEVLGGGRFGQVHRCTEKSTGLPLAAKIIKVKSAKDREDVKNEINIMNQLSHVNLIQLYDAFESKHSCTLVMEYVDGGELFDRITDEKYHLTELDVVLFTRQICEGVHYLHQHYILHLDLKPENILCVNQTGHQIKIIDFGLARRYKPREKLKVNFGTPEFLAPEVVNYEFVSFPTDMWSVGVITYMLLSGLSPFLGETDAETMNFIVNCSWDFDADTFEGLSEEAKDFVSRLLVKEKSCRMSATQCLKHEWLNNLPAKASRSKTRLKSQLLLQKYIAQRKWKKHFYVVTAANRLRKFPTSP
An excerpt: (§1) We assessed the selectivity of members of this scaffold using the KINOMEscan methodology across a near comprehensive panel of 442 kinases [[18,27]].

Experiment [2] has as its target T2, panel of 442 kinases (Homo sapiens, UniProt Q13557).
T2 construct: purchased KINOMEscan
Text: as §1

In experiment [3] the target is T3, panel of 442 kinases (Homo sapiens, UniProt Q9Y2K2).
T3 construct: purchased KINOMEscan
Text: as §1

The structures appear in SMILES notation.

The values that follow come from PMC3914206.

T3 sequence (Q9Y2K2 whole entry): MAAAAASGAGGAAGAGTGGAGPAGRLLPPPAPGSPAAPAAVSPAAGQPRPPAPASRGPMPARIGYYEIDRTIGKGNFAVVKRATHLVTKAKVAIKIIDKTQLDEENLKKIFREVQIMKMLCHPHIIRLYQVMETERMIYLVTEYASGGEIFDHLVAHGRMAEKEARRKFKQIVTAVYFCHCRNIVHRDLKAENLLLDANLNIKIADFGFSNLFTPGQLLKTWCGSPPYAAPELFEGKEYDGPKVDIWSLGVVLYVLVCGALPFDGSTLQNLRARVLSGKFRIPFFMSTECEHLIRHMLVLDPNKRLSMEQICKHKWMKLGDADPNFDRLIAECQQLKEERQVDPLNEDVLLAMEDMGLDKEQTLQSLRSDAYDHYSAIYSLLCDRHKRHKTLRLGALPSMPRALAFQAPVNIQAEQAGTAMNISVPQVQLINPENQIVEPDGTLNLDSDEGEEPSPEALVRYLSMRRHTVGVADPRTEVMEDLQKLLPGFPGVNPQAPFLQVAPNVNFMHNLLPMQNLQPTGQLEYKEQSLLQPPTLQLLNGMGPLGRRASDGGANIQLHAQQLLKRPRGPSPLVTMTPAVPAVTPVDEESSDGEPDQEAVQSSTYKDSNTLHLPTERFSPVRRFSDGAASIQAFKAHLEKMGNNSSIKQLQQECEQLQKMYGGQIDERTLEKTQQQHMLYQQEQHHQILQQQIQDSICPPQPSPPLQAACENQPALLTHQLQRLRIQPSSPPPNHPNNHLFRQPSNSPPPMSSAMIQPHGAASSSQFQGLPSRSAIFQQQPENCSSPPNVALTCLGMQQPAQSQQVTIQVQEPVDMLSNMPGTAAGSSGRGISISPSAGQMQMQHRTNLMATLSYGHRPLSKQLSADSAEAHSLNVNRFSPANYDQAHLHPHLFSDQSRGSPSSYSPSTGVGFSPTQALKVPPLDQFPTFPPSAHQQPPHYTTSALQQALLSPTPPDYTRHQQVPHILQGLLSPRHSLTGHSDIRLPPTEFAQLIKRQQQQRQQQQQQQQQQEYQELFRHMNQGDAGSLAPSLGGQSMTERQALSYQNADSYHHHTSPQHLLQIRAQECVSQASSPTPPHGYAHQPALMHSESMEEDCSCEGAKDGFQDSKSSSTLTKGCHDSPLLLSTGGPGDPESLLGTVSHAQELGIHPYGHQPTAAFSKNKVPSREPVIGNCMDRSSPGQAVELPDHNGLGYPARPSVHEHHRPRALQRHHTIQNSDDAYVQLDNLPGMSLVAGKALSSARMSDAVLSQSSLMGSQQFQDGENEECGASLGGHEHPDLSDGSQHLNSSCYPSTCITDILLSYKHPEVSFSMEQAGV
T2 sequence (Q13557 whole entry): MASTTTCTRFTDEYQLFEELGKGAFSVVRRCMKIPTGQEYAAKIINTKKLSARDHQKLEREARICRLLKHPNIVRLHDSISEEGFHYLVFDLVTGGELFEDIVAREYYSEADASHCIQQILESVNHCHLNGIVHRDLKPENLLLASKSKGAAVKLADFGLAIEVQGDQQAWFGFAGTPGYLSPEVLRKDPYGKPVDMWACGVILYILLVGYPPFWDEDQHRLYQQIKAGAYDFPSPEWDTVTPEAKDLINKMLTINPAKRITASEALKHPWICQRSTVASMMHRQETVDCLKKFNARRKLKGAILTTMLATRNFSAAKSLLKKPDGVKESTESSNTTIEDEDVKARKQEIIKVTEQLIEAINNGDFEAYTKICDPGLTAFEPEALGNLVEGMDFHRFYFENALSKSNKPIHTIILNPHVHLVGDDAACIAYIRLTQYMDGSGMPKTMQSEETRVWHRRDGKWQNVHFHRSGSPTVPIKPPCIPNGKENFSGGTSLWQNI

With `COc1cc(C(=O)N2CCC(N3CCN(C)CC3)CC2)ccc1Nc1ncc2c(n1)N(C1CCCC1)c1ccccc1C(=O)N2C` [Compound 25, 11-cyclopentyl-2-((2-methoxy-4-(4-(4-methylpiperazin-1-yl)piperidine-1-carbonyl)phenyl)amino)-5-methyl-5H-benzo[e]pyrimido[5,4-b][1,4]diazepin-6(11H)-one], at panel of 442 kinases [1], the “KINOMEscan: MLCK” value came out at 100. On panel of 442 kinases [2], the “KINOMEscan: CAMK2D” value was determined as 100. Besides, the “KINOMEscan: QSK” value on panel of 442 kinases [3] is on record as 100.

For the compound `COc1cc(C(=O)N2CCC(N3CCN(C)CC3)CC2)ccc1Nc1ncc2c(n1)N1CCc3cccc(c31)C(=O)N2C` [Compound 24], the “KINOMEscan: CAMK2D” value at panel of 442 kinases [2] was determined as 62.

As to `COc1cc(C(=O)N2CCC(N3CCN(C)CC3)CC2)ccc1Nc1ncc2c(n1)N(C)c1ccccc1C(=O)N2C` [15 (LRRK2-IN-1)], the “KINOMEscan: MLCK” value at panel of 442 kinases [1] came to 100. Further, the “KINOMEscan: CAMK2D” value on panel of 442 kinases [2] is 28. For the same compound, the “KINOMEscan: QSK” value on panel of 442 kinases [3] is listed as 100.

With `CCOc1cc(C(=O)N2CCC(N3CCN(C)CC3)CC2)ccc1Nc1ncc2c(n1)N(C1CCCC1)c1ccccc1C(=O)N2C` [Compound 26], the “KINOMEscan: MLCK” value on panel of 442 kinases [1] is 100. Also, the “KINOMEscan: CAMK2D” value at panel of 442 kinases [2] is 96. Moreover, the “KINOMEscan: QSK” value at panel of 442 kinases [3] was 100.
